Entries after “also recorded” stand apart in the source; their conditions may differ.
Experiments:
[1] = Stability assessment: storage under stress conditions, XRPD after storage; type: physicochemical; details: for stability (overall conclusion in words): solid form stability on storage; for Form Change: XRPD
Description: The crystalline Form I of the present disclosure was stored under 5° C., 25° C./60% RH and 40° C./75% relative humidity for 90 days. XRPD patterns were collected after storage.
The crystalline Form II of the present disclosure was stored under 5° C. and 25° C./60% RH. XRPD patterns were collected after storage.
Phosphate Form A of the present disclosure was stored under 5° C., 25° C./60% RH and 40° C./75% RH for 90 days. XRPD patterns were collected after storage.
Two of 10 mg of phosphate Form C were respectively opened stored at 25° C./60% RH and 40° C./75% RH for 30 days. XRPD and purity of the sample were collected after storage.

JAK2 = JAK2 (Homo sapiens, UniProt O60674); details: kinase detection, selectivity over JAK3; cited from earlier work
JAK2, sequence (O60674 whole entry): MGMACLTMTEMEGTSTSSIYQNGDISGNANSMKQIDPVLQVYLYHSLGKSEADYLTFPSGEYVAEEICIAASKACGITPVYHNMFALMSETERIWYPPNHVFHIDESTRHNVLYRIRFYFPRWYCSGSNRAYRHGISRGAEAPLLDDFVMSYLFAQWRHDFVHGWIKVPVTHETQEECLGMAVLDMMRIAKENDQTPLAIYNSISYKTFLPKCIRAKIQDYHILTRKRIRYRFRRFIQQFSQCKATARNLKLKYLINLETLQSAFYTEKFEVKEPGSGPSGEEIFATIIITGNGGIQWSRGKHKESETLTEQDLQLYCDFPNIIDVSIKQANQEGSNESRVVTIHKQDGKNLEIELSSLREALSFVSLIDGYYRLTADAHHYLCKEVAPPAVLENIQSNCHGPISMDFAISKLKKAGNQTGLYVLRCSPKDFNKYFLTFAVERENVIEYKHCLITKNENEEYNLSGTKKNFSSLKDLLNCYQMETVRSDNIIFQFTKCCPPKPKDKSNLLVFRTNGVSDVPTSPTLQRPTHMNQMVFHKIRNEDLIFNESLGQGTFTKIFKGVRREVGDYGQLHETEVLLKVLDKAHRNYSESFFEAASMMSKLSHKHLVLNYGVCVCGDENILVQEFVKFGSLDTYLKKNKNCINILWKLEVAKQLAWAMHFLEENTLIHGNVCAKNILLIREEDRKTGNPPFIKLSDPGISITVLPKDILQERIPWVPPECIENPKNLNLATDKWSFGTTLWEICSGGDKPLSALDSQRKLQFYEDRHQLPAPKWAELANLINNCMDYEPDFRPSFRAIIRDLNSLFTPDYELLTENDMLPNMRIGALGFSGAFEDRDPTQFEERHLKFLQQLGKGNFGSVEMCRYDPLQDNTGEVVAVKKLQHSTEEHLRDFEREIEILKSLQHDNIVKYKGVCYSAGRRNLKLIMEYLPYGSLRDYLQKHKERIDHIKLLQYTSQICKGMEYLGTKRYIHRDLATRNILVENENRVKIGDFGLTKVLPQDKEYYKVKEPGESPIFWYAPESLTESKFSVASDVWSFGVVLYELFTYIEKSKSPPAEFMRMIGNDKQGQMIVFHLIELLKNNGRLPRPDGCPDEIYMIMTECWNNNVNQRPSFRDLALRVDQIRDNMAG

[2] = Hygroscopicity assessment by dynamic vapor sorption (DVS); type: physicochemical; details: for weight gain under 80% Relative Humidity: DVS, 10 mg sample, 80% RH
Description: Hygroscopicity of 10 mg Form I of the present disclosure was tested using dynamic vapor sorption (DVS). 5.
(§1) About hygroscopicity characterization description and definition of hygroscopicity (Chinese Pharmacopoeia 2010 edition appendix XIXJ Drug hygroscopic test guidelines, test at 25° C.+/−1° C., 80% Relative Humidity) • deliquescent: sufficient water is absorbed to form a liquid; • very hygroscopic: increase in mass is equal to or greater than 15 percent; • hygroscopic: increase in mass is less than 15 percent and equal to or greater than 2 percent; • slightly hygroscopic: increase in mass is less than 2 percent and equal to or greater than 0.2 percent. • no or almost no hygroscopic: increase in mass is less than 0.2%.
Hygroscopicity of 10 mg of phosphate crystalline Form A and phosphate crystalline Form C of the present disclosure were tested using dynamic vapor sorption (DVS). The DVS plot of phosphate crystalline Form A is shown in FIG. 23, The DVS plot of phosphate crystalline Form C is shown in FIG. 24.
as §1, with “Pharmacopoeia” for “About hygroscopicity characterization description and definition of hygroscopicity (Chinese Pharmacopoeia”

[3] = stored at 25° C./60% RH for 30 days
[4] = stored at 25° C./60% RH for 90 days
[5] = stored at 40° C./75% RH for 90 days

Row | SMILES | stability (overall conclusion in words) [1] | Form Change ([1]; stored at 5° C. for 90 days) | Form Change [1, 3] | weight gain under 80% Relative Humidity [2] | Form Change [1, 4] | Form Change [1, 5] | further results
1 | CCS(=O)(=O)N1CC(CC#N)(n2cc(-c3ncnc4[nH]ccc34)cn2)C1 [Form II] | good stability | remains unchanged; also recorded: Form II remain unchanged | remains unchanged; also recorded: Form II remain unchanged |  |  |  | 
2 | CCS(=O)(=O)N1CC(CC#N)(n2cc(-c3ncnc4[nH]ccc34)cn2)C1 [Baricitinib] |  |  |  |  |  |  | inhibition strength for JAK2 relative to JAK3 (JAK2): 100 times
3 | CCS(=O)(=O)N1CC(CC#N)(n2cc(-c3ncnc4[nH]ccc34)cn2)C1 [phosphate Form C] |  |  | Form C remain | 2.85% |  |  | Form Change ([1]; stored at 40° C./75% RH for 30 days): Form C remain; weight gain under 80% Relative Humidity ([2]; listed as phosphate Form C of the compound Formula (I)): 2.85%
4 | CCS(=O)(=O)N1CC(CC#N)(n2cc(-c3ncnc4[nH]ccc34)cn2)C1 [phosphate Form A] | good stability | remains unchanged |  | 0.99% | remains unchanged | remains unchanged | Form Change ([1]; stored at 5° C. for 90 days, listed as Phosphate Crystalline Form A): Form A remain unchanged; Form Change ([1]; stored at 25° C./60% RH for 90 days, listed as Phosphate Crystalline Form A): Form A remain unchanged; Form Change ([1]; stored at 40° C./75% RH for 90 days, listed as Phosphate Crystalline Form A): Form A remain unchanged; weight gain under 80% Relative Humidity ([2]; listed as phosphate Form A of the compound Formula (I)): 0.99%
5 | CCS(=O)(=O)N1CC(CC#N)(n2cc(-c3ncnc4[nH]ccc34)cn2)C1 [Form I] | good stability | remains unchanged; also recorded: Form I remain unchanged |  |  | remains unchanged; also recorded: Form I remain unchanged | remains unchanged; also recorded: Form I remain unchanged | hygroscopicity class ([2]; Chinese Pharmacopoeia 2010 definition, 25° C.+/-1° C., 80% Relative Humidity): slightly hygroscopic (slightly hygroscopic: increase in mass is less than 2 percent and equal to or greater than 0.2 percent); weight gain under 80% Relative Humidity ([2]; listed as Form I of the compound Formula (I)): 0.44%

Reference: US10377757B2, “Crystal form of JAK inhibitor and preparation method thereof” (CRYSTAL PHARMATECH CO., LTD, priority 2015, dated 2019)
